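48-hour exposure; five concentrations; linearly interpolated endpoints. The concentration for 50% growth inhibition is given as GI50. TGI: total growth inhibition.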
What was measured:
Test in all cases: NCI anticancer screen, dose series, 48 h
[1] = tested on: NCI-H522 lung
[2] = tested on: SF-268 CNS
[3] = tested on: MDA-N
[4] = tested on: MCF7 breast
[5] = tested on: HL-60(TB) leukemia
[6] = tested on: K-562 leukemia
[7] = tested on: U251 CNS
[8] = tested on: IGROV1 ovarian
[9] = tested on: EKVX NSCLC

Row | SMILES | TGI [1] [µM] | TGI [2] [µM] | TGI [3] [µM] | TGI [4] [µM] | TGI [5] [µM] | TGI [6] [µM] | TGI [7] [µM] | TGI [8] [µM] | TGI [9] [µM] | GI50 [1] [µM] | GI50 [2] [µM] | GI50 [4] [µM] | GI50 [5] [µM] | GI50 [6] [µM] | GI50 [7] [µM] | GI50 [9] [µM]
1 | CCCC(CC)c1cc(O)c(O)cc1C(CC)CCC (configuration not stated) | > 10 | > 10 | > 10 | > 10 | > 10 | > 10 | > 10 | > 10 | > 10 | – | – | – | – | – | – | –
2 | Cn1c(=O)[nH]n(-c2ccc3ccccc3c2)c1=O | > 100 | > 100 | > 100 | > 100 | > 100 | > 100 | > 100 | > 100 | > 100 | – | – | – | – | – | – | –
3 | COc1ccc(Nc2nc(NNC(=O)Cc3ccccc3)nc(NNC(=O)c3ccncc3)n2)cc1 | > 10 | > 10 | > 10 | > 10 | – | > 10 | > 10 | > 10 | > 10 | – | – | – | – | – | – | –
4 | CC(=O)OCC1(CNc2nc(N)ncc2C#N)CC(CCc2ccccc2)C1 (configuration not stated) | > 100 | > 100 | > 100 | > 100 | > 100 | > 100 | > 100 | > 100 | > 100 | – | – | – | – | – | – | –
5 | CCOC(=O)COC1=Nc2cc(OC)c(OC)c3nc(Cl)cc(c23)C1=O | 3.25 | 6.83 | 2.63 | 3.46 | 0.879 | 7.2 | 8.49 | 5.97 | 1.83 | – | – | – | – | – | – | –
6 | COc1ccc(-c2cc(-c3ccc(OC)c(OC)c3)nc(SCCCC(=O)NO)n2)cc1 | 5.09 | 5.45 | – | 10.2 | 5.99 | > 100 | 5.78 | – | > 100 | 0.787 | 1.97 | 2.75 | 1.64 | 1.11 | 1.76 | 1.73
7 | COC(CC1(CCNc2ccccc2)C(=O)N(COCC[Si](C)(C)C)c2ccccc21)OC (configuration not stated) | 24.2 | 26.3 | > 68.2 | 30.4 | 98.2 | > 100 | > 61 | 21.4 | 31.7 | – | – | – | – | – | – | –
8 | COc1ccc(C(=O)/C=C/c2ccc(OCCCOc3ccc(/C=C/C(=O)c4ccc(OC)c(OC)c4)cc3)cc2)cc1OC | – | > 100 | > 100 | > 100 | > 100 | > 100 | > 100 | > 100 | > 100 | – | – | – | – | – | – | –
9 | N#C[C@H]1C(=O)C(c2nc3ccccc3[nH]2)S[C@H]1c1ccccc1 (some centres not stated) | 52.6 | – | – | > 100 | > 100 | > 100 | 57.2 | > 100 | > 100 | – | – | – | – | – | – | –
10 | COCCN(C(=O)c1ccccc1)C1CCC(=O)c2[nH]c3ccccc3c21 (configuration not stated) | 6.93 | 28.4 | – | 19.2 | 58.8 | 18.3 | 3.99 | 13.6 | 25.7 | – | – | – | – | – | – | –
11 | c1cc2c3c(c1)[C@@H]1O[C@@H]1c1cccc(c1-3)[C@@H]1O[C@H]21 | 30.1 | 33.6 | 41.9 | > 100 | – | > 100 | 33 | – | 34.4 | – | – | – | – | – | – | –
12 | CCC(=O)Nc1ccc(N2C(=O)/C(=C/c3ccc(O)c(OC)c3)N=C2c2ccccc2)cc1 | > 100 | > 100 | > 100 | > 100 | > 100 | > 100 | – | > 100 | 46.4 | – | – | – | – | – | – | –
13 | CC1Cc2c(cc(N)nc2Br)NC1=O (configuration not stated) | > 100 | > 100 | > 100 | > 100 | – | > 100 | > 100 | > 100 | > 100 | – | – | – | – | – | – | –
14 | C/C(=C\COP(=O)(O)OP(=O)(O)O)CC/C=C(\C)CNc1ccccc1 | > 50 | > 50 | – | > 50 | – | > 50 | > 50 | > 50 | > 50 | – | – | – | – | – | – | –
15 | CCCOC1OC(CS(=O)(=O)O)C(OC(C)=O)C(OC(C)=O)C1OC(C)=O (configuration not stated) | – | – | > 100 | > 100 | > 100 | > 100 | > 100 | > 100 | – | – | – | – | – | – | – | –
16 | CCn1c(O)c(C(=O)NC(C)c2ccc([N+](=O)[O-])cc2)c(=O)n(CC)c1=S (configuration not stated) | – | 15.3 | 13.6 | 9.19 | 5.11 | 3.6 | 13.1 | 11.4 | 12.7 | – | – | – | – | – | – | –
17 | CC(=O)c1cc(S(=O)(=O)c2ccc(O)c(C(C)=O)c2)ccc1O | > 100 | > 100 | > 100 | > 100 | – | > 100 | > 100 | > 100 | > 100 | – | – | – | – | – | – | –
18 | S=c1oc(CCCCCCCCc2nn(CNc3ccc(Cl)cc3)c(=S)o2)nn1CNc1ccc(Cl)cc1 | > 100 | > 100 | > 100 | > 100 | – | > 100 | > 100 | > 100 | > 100 | – | – | – | – | – | – | –
19 | O=C(O)Cn1ncn(NC(=O)Cc2ccccc2)c1=S | > 10 | > 10 | > 10 | > 10 | – | > 10 | > 10 | > 10 | > 10 | – | – | – | – | – | – | –
20 | CCCCN(CCCC)C1=Nc2ccccc2-n2c(nnc2C(=O)OCC)C1 | > 100 | > 100 | – | > 100 | 40.9 | 86.9 | – | > 100 | > 100 | – | – | – | – | – | – | –
21 | Cc1cc(C)c(C#N)c(SC(=S)NC(=O)c2ccccc2)n1 | > 100 | > 100 | > 100 | > 100 | – | > 100 | > 100 | > 100 | > 100 | – | – | – | – | – | – | –
22 | Cn1cnc(/C=C/C#N)c1 | > 100 | > 100 | > 100 | > 100 | – | > 100 | > 100 | > 100 | > 100 | – | – | – | – | – | – | –
23 | CCOc1ccccc1N=NC1C(=O)N(C(=O)CC(=O)Nc2ccccc2OC)N=C1C (configuration not stated) | > 100 | 68.8 | > 100 | > 100 | > 100 | – | 95.6 | > 100 | 21.8 | – | – | – | – | – | – | –
24 | C=C1C(=O)O[C@H]2[C@H]1CC/C(COC(=O)/C=C/C(=O)OC/C1=C/CC[C@@]3(C)O[C@H]3[C@H]3OC(=O)C(=C)[C@@H]3CC1)=C\CC[C@@]1(C)O[C@@H]21 | 0.374 | > 100 | – | – | – | – | 10.8 | – | > 100 | 0.171 | 3.19 | – | – | – | 2.82 | 2.22
